# Results published in patent US10150743B2, “Carboxylic acid compounds” (priority 2012, dated 2018).
# Columns and labels:
# Format in all cases: cell-based
# hERG ion channel = hERG ion channel (Homo sapiens (Human), UniProt Q12809); assay: hERG Analysis - Method 1 (IONWORKS HT, CHO-hERG cells); details: ~21° C.
# Description: The hERG-expressing Chinese hamster ovary K1 (CHO) cells described by (Persson, Carlsson, Duker, & Jacobson, 2005) were grown to semi-confluence at 37° C. in a humidified environment (5% CO2) in F-12 Ham medium containing L-glutamine, 10% foetal calf serum (FCS) and 0.6 mg/mL hygromycin (all available from Sigma-Aldrich). Prior to use, the monolayer was washed using a pre-warmed (37° C.) 3 mL aliquot of Versene 1:5,000 (Invitrogen) After aspiration of this solution the flask was incubated at 37° C. in an incubator with a further 2 mL of Versene 1:5,000 for a period of 6 minutes. Cells were then detached from the bottom of the flask by gentle tapping and 10 mL of Dulbecco's Phosphate-Buffered Saline containing calcium (0.9 mM) and magnesium (0.5 mM) (PBS; Invitrogen) was then added to the flask and aspirated into a 15 mL centrifuge tube prior to centrifugation (50 g, for 4 mins). The resulting supernatant was discarded and the pellet gently re-suspended in 3 mL of PBS. A 0.5 mL aliquot of cell suspension was removed and the number of viable cells (based on trypan blue exclusion) was determined in an automated reader (Cedex; Innovatis) so that the cell re-suspension volume can be adjusted with PBS to give the desired final cell concentration. It is the cell concentration at this point in the assay that is quoted when referring to this parameter. CHO-Kv1.5 cells, which were used to adjust the voltage offset on IONWORKS™ HT, were maintained and prepared for use in the same way.
# The principles and operation of this device have been described by (Schroeder, Neagle, Trezise, & Worley, 2003). Briefly, the technology is based on a 384-well plate (PATCHPLATE™) in which a recording was attempted in each well by using suction to position and hold a cell on a small hole separating two isolated fluid chambers. Once sealing had taken place, the solution on the underside of the PATCHPLATE™ was changed to one containing amphotericin B. This permeablises the patch of cell membrane covering the hole in each well and, in effect, allowed a perforated, whole-cell patch clamp recording to be made.
# A β-test IONWORKS™ HT from Essen Instrument was used. […] (˜21° C.), as follows. The reservoir in the “Buffer” position was loaded with 4 mL of PBS and that in the “Cells” position with the CHO-hERG cell suspension described above. A 96-well plate (V-bottom, Greiner Bio-one) containing the compounds to be tested (at 3-fold above their final test concentration) was placed in the “Plate 1” position and a PATCHPLATE™ was clamped into the PATCHPLATE™ station. […]
# hERG potassium channel = hERG potassium channel (Homo sapiens (Human), UniProt Q12809); assay: hERG Analysis - Method 2 (QPATCH HT, CHO-hERG cells); details: half-maximal inhibition concentration, 22±2° C.
# Description: The hERG potassium current was measured in a hERG-stably-expressing Chinese hamster ovary K1 (CHO) cells. The experiments were performed using an automated planar patch-clamp system QPATCH HT (Sophion Bioscience A/S). The application of pressure for forming gigaseals and whole-cell patch clamp configuration were established using the QPATCH assay software. Patch-clamp experiments were performed in voltage-clamp mode and whole-cell currents were recorded from individual cells. The following stimulation protocol was applied to investigate the effects of compounds on hERG potassium channel: The membrane potential was held at −80 mV and repetitively (every 15 s) depolarized to +20 mV for 5 s after the pulse to −50 mV for 20 ms served to define the baseline, followed by repolarizing step to −50 mV for 5 s to evaluate of the tail current amplitude. Experiments were conducted at room temperature (22±2° C.).
# Effects of compounds were determined from cumulative applications of increasing 4 concentrations and calculated as percent of blocked current. The data points were fitted with Hill equation to calculate half-maximal inhibition concentrations. The test solution includes: Extracellular solution (mM): 2 mM of CaCl2, 1 mM of MgCl2, 10 mM of HEPES, 4 mM of KCl, 145 mM of NaCl, and 10 mM of Glucose; and Intracellular solution (mM): 5.4 mM of CaCl2, 1.8 mM of MgCl2, 10 mM of HEPES, 31 mM of KOH, 10 mM of EGTA, 120 mM of KCl, and 4 mM of ATP.
# human TLR7 = human TLR7 (Homo sapiens (Human), UniProt Q9NYK1); assay: Human TLR7 assay (SEAP reporter in HEK293); details: SEAP induction, overnight incubation at 37° C., 0.1% DMSO; read-out: TLR7 (pEC50) (converted)
# Text: Recombinant human TLR7 was stably expressed in a HEK293 cell line already stably expressing the pNiFty2-SEAP reporter plasmid; integration of the reporter gene was maintained by selection with the antibiotic zeocin. The most common variant sequence of human TLR7 (represented by the EMBL sequence AF240467) was cloned into the mammalian cell expression vector pUNO and transfected into this reporter cell-line. Transfectants with stable expression were selected using the antibiotic blasticidin. In this reporter cell-line, expression of secreted alkaline phosphatase (SEAP) is controlled by an NFkB/ELAM-1 composite promoter comprising five NFkB sites combined with the proximal ELAM-1 promoter. TLR signaling leads to the translocation of NFkB and activation of the promoter results in expression of the SEAP gene. TLR7-specific activation was assessed by determining the level of SEAP produced following overnight incubation of the cells at 37° C. with the standard compound in the presence of 0.1% (v/v) dimethylsulfoxide (DMSO). Concentration dependent induction of SEAP production by compounds was expressed as the concentration of compound which produced half of the maximal level of SEAP induction for that compound (EC50).
# human TLR8 = human TLR8 (Homo sapiens (Human), UniProt Q9NR97); assay: Human TLR8 assay (TLR8/NF-kB/SEAPorter HEK 293 Cell Line); details: SEAP induction, overnight incubation at 37° C., 0.1% DMSO; read-out: TLR8 pEC50 (converted)
# Text: TLR8/NF-kB/SEAPorter™ HEK 293 Cell Line (Imgenex Corporation) is a stably co-transfected cell line which expresses full-length human TLR8 and the secreted alkaline phosphatase (SEAP) reporter gene under the transcriptional control of an NF-κB response element. TLR8 expression in this cell line has been tested by flow cytometry. Transfectants with stable expression were selected using the antibiotic blasticidin and geneticin. TLR signaling leads to the translocation of NF-κB and activation of the promoter results in expression of the SEAP gene. TLR8-specific activation was assessed by determining the level of SEAP produced following overnight incubation of the cells at 37° C. with the standard compound in the presence of 0.1% (v/v) dimethylsulfoxide (DMSO). Concentration dependent induction of SEAP production by compounds was expressed as the concentration of compound which produced half of the maximal level of SEAP induction for that compound (EC50).
# Sequence of hERG potassium channel (Q12809 whole entry): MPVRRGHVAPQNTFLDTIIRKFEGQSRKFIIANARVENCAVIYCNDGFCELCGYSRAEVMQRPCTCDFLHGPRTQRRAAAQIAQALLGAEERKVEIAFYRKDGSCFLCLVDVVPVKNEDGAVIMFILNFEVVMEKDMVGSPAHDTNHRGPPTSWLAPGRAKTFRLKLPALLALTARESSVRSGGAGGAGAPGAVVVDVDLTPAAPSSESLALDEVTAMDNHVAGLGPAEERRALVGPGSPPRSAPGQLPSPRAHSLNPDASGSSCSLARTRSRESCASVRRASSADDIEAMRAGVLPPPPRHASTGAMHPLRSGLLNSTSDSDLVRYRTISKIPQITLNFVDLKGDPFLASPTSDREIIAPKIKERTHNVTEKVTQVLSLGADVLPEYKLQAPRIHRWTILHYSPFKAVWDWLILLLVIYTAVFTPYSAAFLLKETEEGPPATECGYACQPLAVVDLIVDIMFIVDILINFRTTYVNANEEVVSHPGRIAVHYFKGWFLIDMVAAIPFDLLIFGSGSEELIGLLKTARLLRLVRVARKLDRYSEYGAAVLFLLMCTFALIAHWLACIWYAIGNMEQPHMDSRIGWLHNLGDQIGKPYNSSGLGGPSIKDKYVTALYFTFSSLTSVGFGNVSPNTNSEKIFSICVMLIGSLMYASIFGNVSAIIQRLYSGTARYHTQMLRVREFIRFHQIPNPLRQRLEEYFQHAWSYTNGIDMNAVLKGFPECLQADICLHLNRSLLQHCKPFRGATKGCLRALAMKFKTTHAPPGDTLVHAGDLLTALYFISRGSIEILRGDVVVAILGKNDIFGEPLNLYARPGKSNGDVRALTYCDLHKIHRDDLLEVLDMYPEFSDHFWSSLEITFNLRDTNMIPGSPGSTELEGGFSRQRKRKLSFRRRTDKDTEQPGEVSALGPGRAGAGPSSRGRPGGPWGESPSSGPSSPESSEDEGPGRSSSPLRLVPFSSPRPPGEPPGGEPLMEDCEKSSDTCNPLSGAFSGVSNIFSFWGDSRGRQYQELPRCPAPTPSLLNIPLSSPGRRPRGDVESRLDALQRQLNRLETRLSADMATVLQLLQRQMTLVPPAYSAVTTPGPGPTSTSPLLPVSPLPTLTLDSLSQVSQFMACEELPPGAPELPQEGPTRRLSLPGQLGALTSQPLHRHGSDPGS
# Sequence of hERG ion channel (Q12809 whole entry): as above
# Sequence of human TLR8 (Q9NR97 27-1041): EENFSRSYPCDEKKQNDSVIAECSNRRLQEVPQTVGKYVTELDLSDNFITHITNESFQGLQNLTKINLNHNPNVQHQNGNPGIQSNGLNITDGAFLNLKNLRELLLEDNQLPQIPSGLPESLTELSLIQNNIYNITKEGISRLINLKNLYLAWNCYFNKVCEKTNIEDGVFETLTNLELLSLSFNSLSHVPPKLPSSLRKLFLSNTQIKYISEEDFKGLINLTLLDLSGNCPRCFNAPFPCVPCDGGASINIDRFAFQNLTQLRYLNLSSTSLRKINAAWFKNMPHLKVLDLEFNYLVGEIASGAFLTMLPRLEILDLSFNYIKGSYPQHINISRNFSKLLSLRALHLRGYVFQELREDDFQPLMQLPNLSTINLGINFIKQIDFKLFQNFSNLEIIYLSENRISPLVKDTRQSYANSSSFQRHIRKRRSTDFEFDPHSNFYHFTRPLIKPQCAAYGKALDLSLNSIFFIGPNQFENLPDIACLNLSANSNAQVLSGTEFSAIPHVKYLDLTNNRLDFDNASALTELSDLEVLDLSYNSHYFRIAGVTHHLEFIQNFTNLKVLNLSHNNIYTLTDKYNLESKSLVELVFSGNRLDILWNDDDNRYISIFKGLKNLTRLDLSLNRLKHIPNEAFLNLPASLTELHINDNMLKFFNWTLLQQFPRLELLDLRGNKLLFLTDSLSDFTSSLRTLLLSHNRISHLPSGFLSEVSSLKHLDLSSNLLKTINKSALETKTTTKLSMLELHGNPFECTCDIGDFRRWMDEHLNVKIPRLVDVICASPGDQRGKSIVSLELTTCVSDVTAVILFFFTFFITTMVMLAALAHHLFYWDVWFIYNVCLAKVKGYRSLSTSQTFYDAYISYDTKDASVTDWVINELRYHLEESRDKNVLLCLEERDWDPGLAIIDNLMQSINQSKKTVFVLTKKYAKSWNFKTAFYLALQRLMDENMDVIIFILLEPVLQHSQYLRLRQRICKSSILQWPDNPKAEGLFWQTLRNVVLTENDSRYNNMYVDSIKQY
# Sequence of human TLR7 (Q9NYK1 27-1049): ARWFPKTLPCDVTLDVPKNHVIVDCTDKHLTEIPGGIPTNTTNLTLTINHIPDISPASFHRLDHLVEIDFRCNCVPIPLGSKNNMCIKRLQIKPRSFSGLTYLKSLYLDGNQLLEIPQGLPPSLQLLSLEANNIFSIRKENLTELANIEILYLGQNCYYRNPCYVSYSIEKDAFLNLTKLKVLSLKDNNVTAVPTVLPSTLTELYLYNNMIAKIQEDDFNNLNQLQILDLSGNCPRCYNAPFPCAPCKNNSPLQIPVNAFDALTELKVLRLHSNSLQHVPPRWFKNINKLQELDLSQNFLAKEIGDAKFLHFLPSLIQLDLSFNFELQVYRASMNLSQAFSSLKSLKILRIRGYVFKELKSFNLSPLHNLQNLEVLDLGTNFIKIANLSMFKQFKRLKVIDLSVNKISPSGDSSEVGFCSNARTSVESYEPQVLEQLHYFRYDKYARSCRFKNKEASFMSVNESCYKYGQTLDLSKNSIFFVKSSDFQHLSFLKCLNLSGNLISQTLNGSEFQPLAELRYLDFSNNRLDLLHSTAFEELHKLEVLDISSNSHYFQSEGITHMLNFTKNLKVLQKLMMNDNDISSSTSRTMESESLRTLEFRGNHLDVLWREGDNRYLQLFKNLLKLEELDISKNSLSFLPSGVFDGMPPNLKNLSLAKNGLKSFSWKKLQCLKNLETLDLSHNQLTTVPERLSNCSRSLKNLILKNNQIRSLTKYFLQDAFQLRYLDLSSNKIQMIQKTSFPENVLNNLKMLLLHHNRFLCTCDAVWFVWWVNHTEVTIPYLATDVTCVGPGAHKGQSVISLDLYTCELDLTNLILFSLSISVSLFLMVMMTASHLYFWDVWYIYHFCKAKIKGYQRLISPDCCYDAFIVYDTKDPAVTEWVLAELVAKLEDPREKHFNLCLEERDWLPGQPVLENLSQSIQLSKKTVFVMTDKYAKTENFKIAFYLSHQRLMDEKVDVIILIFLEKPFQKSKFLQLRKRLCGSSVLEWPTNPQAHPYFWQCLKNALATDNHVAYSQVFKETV
Compound,IC50 (hERG ion channel),IC50 (hERG potassium channel),EC50 (human TLR7),EC50 (human TLR8)
"CCC[C@@H](CCO)Nc1nc(N)nc(C)c1Cc1ccc(CN(CC)CC(=O)O)cc1OC [Example 1, (S)-2-((4-((2-amino-4-(1-hydroxyhexan-3-ylamino)-6-methylpyrimidin-5-yl)methyl)-3-methoxybenzyl)(ethyl)amino)acetic acid]",> 33000 nM,> 10000 nM,158 nM,> 10000 nM
"CCC[C@@H](CCO)Nc1nc(N)nc(C)c1Cc1ccc(OCCCN2CCC[C@@H]2C(=O)O)cc1OC [Example 8, (R)-1-(3-(4-((2-amino-4-((S)-1-hydroxyhexan-3-ylamino)-6-methylpyrimidin-5-yl)methyl)-3-methoxyphenoxy)propyl)pyrrolidine-2-carboxylic acid]",–,> 10000 nM,126 nM,> 10000 nM
"CCC[C@@H](CCO)Nc1nc(N)nc(C)c1Cc1ccc(Cn2cncc2C(=O)O)cc1OC [Example 14, (S)-1-(4-((2-amino-4-(1-hydroxyhexan-3-ylamino)-6-methylpyrimidin-5-yl)methyl)-3-methoxybenzyl)-1H-imidazole-5-carboxylic acid]",–,–,2000 nM,> 10000 nM
"CCCCNc1nc(N)nc(C)c1Cc1ccc(CN(CC)CC(=O)O)cc1OC [Example 2, 2-((4-((2-amino-4-(butylamino)-6-methylpyrimidin-5-yl)methyl)-3-methoxybenzyl) (ethyl)amino)acetic acid]",–,> 10000 nM,794 nM,> 10000 nM
"CCC[C@@H](CCO)Nc1nc(N)nc(C)c1Cc1ccc(OCCCN(CC(=O)O)CC(F)F)cc1OC [Example 12, (S)-2-((3-(4-((2-amino-4-(l-hydroxyhexan-3-ylamino)-6-methylpyrimidin-5-yl)methyl)-3-methoxyphenoxy)propyl)(2,2-difluoroethyl)amino)acetic acid]",–,–,100 nM,> 10000 nM
"CCC[C@@H](CCO)Nc1nc(N)nc(C)c1Cc1ccc(CN(CC)CCC(=O)O)cc1OC [Example 5, (S)-3-((4-((2-amino-4-(1-hydroxyhexan-3-ylamino)-6-methylpyrimidin-5-yl)methyl)-3-methoxybenzyl)(ethyl)amino)propanoic acid]",> 33000 nM,> 10000 nM,50.1 nM,> 10000 nM
"CCC[C@@H](CCO)Nc1nc(N)nc(C)c1Cc1ccc(CN(CC(=O)O)C(C)=O)cc1OC [Example 7, (S)-2-(N-(4-((2-amino-4-(1-hydroxyhexan-3-ylamino)-6-methylpyrimidin-5-yl)methyl)-3-methoxybenzyl)acetamido)acetic acid]",–,> 10000 nM,251 nM,> 10000 nM
"CCC[C@@H](CCO)Nc1nc(N)nc(C)c1Cc1ccc(OCCCN(CC)CCC(=O)O)cc1OC [Example 10, (S)-3-((3-(4-((2-amino-4-(1-hydroxyhexan-3-ylamino)-6-methylpyrimidin-5-yl)methyl)-3-methoxyphenoxy)propyl)(ethyl)amino)propanoic acid]",–,–,251 nM,> 10000 nM
"CCC[C@@H](CCO)Nc1nc(N)nc(C)c1Cc1ccc(OCCCN(CC)CC(=O)O)cc1OC [Example 11, (S)-2-((3-(4-((2-amino-4-(1-hydroxyhexan-3-ylamino)-6-methylpyrimidin-5-yl)methyl)-3-methoxyphenoxy)propyl)(ethyl)amino)acetic acid]",–,–,200 nM,> 10000 nM
"CCC[C@@H](CCO)Nc1nc(N)nc(C)c1Cc1ccc(CN2CCC[C@@H]2C(=O)O)cc1OC [Example 13, (R)-1-(4-((2-amino-4-((S)-1-hydroxyhexan-3-ylamino)-6-methylpyrimidin-5-yl)methyl)-3-methoxybenzyl)pyrrolidine-2-carboxylic acid]",–,–,200 nM,> 10000 nM
"CCC[C@@H](CCO)Nc1nc(N)nc(C)c1Cc1ccc(CN(CCC(=O)O)CC(F)F)cc1OC [Example 6, (S)-3-((4-((2-amino-4-(1-hydroxyhexan-3-ylamino)-6-methylpyrimidin-5-yl)methyl)-3-methoxybenzyl)(2,2-difluoroethyl)amino)propanoic acid]",> 33000 nM,> 10000 nM,251 nM,> 10000 nM
"CCC[C@@H](CCO)Nc1nc(N)nc(C)c1Cc1ccc(OCCCN2CCC[C@H]2C(=O)O)cc1OC [Example 9, (S)-1-(3-(4-((2-amino-4-((S)-1-hydroxyhexan-3-ylamino)-6-methylpyrimidin-5-yl)methyl)-3-methoxyphenoxy)propyl)pyrrolidine-2-carboxylic acid]",–,> 10000 nM,200 nM,> 10000 nM
